# Where a name gives a salt, the structure may show the parent alone.
# Target: T1, DP receptor (Homo sapiens, UniProt Q13258)
# T1 construct: the human cell line LS174T, which expresses the endogenous DP receptor; endogenous in cells; host or cells: LS174T human cell line
# T1 sequence (Q13258 1-359): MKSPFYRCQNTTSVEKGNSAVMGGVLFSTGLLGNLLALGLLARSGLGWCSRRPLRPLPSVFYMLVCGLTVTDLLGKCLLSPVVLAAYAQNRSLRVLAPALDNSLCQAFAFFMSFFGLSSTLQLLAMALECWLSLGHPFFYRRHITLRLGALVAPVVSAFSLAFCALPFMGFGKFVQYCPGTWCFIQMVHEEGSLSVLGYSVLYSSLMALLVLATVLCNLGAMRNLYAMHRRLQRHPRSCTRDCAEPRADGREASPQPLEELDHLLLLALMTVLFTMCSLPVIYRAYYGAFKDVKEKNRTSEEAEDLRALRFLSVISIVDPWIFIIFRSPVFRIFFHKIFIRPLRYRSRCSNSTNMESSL
# Test: SPA cAMP assay in human LS174 T cells (human DP functional assay)
# Type: cell-based
# Details: inhibition of PGD2 (15 nM final) stimulated cAMP, LS174T cells expressing endogenous DP receptor
# Experimental: The inhibitory effects of the compounds according to the invention are assessed in a human DP functional assay. A cAMP assay is employed using the human cell line LS174T, which expresses the endogenous DP receptor.
# Protocol for SPA cAMP Assay in Human LS174 T Cells
# • 1) Add equal volumes of tracer, antiserum and SPA anti-rabbit reagent to a bottle, ensuring that a sufficient volume of this mixture is prepared for the desired number of wells (150 μL/well). • 2) Mix thoroughly. • 3) This immunoreagent solution should be freshly prepared before each assay and not re-used.
# Add 50 μL of […] IBMX into 100 mL PBS to make a final concentration of 100 μM and sonicate at 30° C. for 20 minutes.
# Before each assay, it is freshly prepared. Add 3 μL of 10 mM stock solution to 20 mL DMSO, mix it thoroughly, and transfer 10 mL to 40 mL PBS.
# Compound dilution is carried out in Biomex 2000 (Beckman) using Method 1_cAMP DP 11 points.
# 5 μL of each compound from the 10 mM stock compound plates is transferred to the wells of a 96-well plate respectively as below.
# Fill the plate with 45 μL of DMSO except column 7 is filled with 28 μL DMSO. Pipette column 1 thoroughly, and transfer 12 μL into column 7 parallel. Perform 1:10 serial dilution from column 1 to column 6 and from column 7 to column 11 by transfer 5 μL to 45 μL DMSO to make following concentrations:
# Fill a new 96-well plate with 247.5 μL of compound dilution buffer. Transfer 2.5 μL of serially diluted compounds from above plate to the new plate (1:100 dilution) as following:
# Cell Growth • 1. […] Remove growth medium from cells. Cells in T165 flask are washed twice with 4 mL Trypsin followed by incubation at 37° C. and 5% CO2 for 3 minutes. • 4. Add 10 mL of medium and pipette thoroughly to separate the cells and count the cells. • 5. […] Assay Procedure Day 1 • Seed 45,000 cells/well in 200 μL medium in 96-well plates. Incubate the cell plate at 37° C., 5% CO2 and 95% humidity overnight. Day 2 • 1. Perform compound dilution. • 2. Prepare assay buffer, lysis buffer 1 & 2, PGD2 and standard. • 3. Aspirate media from the cells and add 100 μL of compound solution using Zymark Sciclone-ALH/FD protocol cAMP DP. • 4. Incubate the cells at 37° C., 5% CO2 and 95% humidity for 15 minutes. • 5. […] Aspirate media from the cells and add 50 μL of lysis buffer 1 using Zymark protocol cAMP DP lysis, and incubate at room temperature with shaking for 30 minutes. • 7. Add 150 μL immunoreagent to all wells (a total volume of 200 μL/well). • 8. Seal the plates and shake for 2 minutes, put into the chamber of the Wallac microtitre plate μ scintillation counter for 16 hours. […] Data Processing Set up standard curve of cAMP versus CPM.
# The cAMP concentrations (pmol/mL) of unknown samples are calculated from a standard curve of cAMP versus CPM. % inhibition is calculated using the following formula: […]
row,Structure (SMILES),IC50
1,"COc1ccc(CCNc2cc(-c3ccsc3/C=N/O)nc(OC)n2)cc1 [Example 26(d), 3-{2-Methoxy-6-[2-(4-methoxy-phenyl)-ethylamino]-pyrimidin-4-yl}-thiophene-2-carbaldehyde oxime]",0.4 nM
2,"COc1nc(NCCc2c(F)cccc2Cl)cc(-c2cccc(OCc3noc(=O)[nH]3)c2)n1 [Example 34(c), 3-(3-{6-[2-(2-Chloro-6-fluoro-phenyl)-ethylamino]-2-methoxy-pyrimidin-4-yl}-phenoxymethyl)-4H-[1,2,4]oxadiazol-5-one hydrochloride]",0.3 nM
3,"COc1ccc(CCNc2cc(-c3cccc(C(=O)O)c3)nc(SC)n2)cc1OC [Example 16(b), 3-{6-[2-(3,4-Dimethoxy-phenyl)-ethylamino]-2-methylsulfanyl-pyrimidin-4-yl}-benzoic acid]",243 nM
4,"COc1ccc(CCNc2cc(-c3cnco3)nc(OC)n2)cc1 [Example 45, (2-Methoxy-6-oxazol-5-yl-pyrimidin-4-yl)-[2-(4-methoxy-phenyl)-ethyl]-amine]",7.8 nM
5,COc1ccc(CCNc2cc(-c3ccc(N(C)C)cc3)nc(OC)n2)cc1 [Example 10(I)],42 nM
6,"COc1ccc(CCNc2cc(-c3ccc(OC)c(-c4nnn[nH]4)c3)nc(OC)n2)cc1 [Example 24(c), {2-Methoxy-6-[4-methoxy-3-(1H-tetrazol-5-yl)-phenyl]-pyrimidin-4-yl}-[2-(4-methoxy-phenyl)-ethyl]-amine]",0.5 nM
7,"COc1ccc(CCNc2cc(-c3ccc(C(C)=O)s3)nc(OC)n2)cc1 [Example 35(m), 1-(5-{2-Methoxy-6-[2-(4-methoxy-phenyl)-ethylamino]-pyrimidin-4-yl}-thiophen-2-yl)-ethanone]",3.8 nM
8,"COc1ccc(CCNc2cc(-c3cccc(CC#N)c3)nc(OC)n2)cc1 [Example 35(s), (3-{2-Methoxy-6-[2-(4-methoxy-phenyl)-ethylamino]-pyrimidin-4-yl}-phenyl)-acetonitrile]",6 nM
9,"CCNS(=O)(=O)c1cccc(-c2cc(NCCc3ccc(OC)cc3)nc(OC)n2)c1 [Example 4(b), N-Ethyl-3-{2-methoxy-6-[2-(4-methoxy-phenyl)-ethylamino]-pyrimidin-4-yl}-benzenesulfonamide]",6.6 nM
10,"COc1ccc(CCNc2cc(-c3c(C)noc3C)nc(OC)n2)cc1 [Example 8(d), [6-(3,5-Dimethyl-isoxazol-4-yl)-2-methoxy-pyrimidin-4-yl]-[2-(4-methoxy-phenyl)-ethyl]-amine]",1.9 nM
11,"COc1ccc(CCNc2cc(-c3ccccc3NS(C)(=O)=O)nc(OC)n2)cc1 [Example 10(d), N-(2-{2-Methoxy-6-[2-(4-methoxy-phenyl)-ethylamino]-pyrimidin-4-yl}-phenyl)-methanesulfonamide]",2 nM
12,"COc1ccc(CCNc2cc(-c3ccc(OC)nc3)nc(OC)n2)cc1 [Example 35(o), [2-Methoxy-6-(6-methoxy-pyridin-3-yl)-pyrimidin-4-yl]-[12-(4-methoxy-phenyl)-ethyl]-amine]",1.7 nM
13,"COc1nc(NCCc2ccc3c(c2)OC(F)(F)O3)cc(-c2ccc[n+]([O-])c2)n1 [Example 21(b), [2-(2,2-Difluoro-benzo[1,3]dioxol-5-yl)-ethyl]-[2-methoxy-6-(1-oxy-pyridin-3-yl)-pyrimidin-4-yl]-amine]",2150 nM
14,COc1ccc(CCNc2cc(-c3cccc(S(C)(=O)=O)c3)nc(OC)n2)cc1 [Example 10(i)],7.3 nM
15,"COc1cccc(-c2cc(NCCc3cccs3)nc(OC)n2)c1 [Example 43(e), [2-Methoxy-6-(3-methoxy-phenyl)-pyrimidin-4-yl]-(2-thiophen-2-yl-ethyl)-amine hydrochloride]",9.7 nM
16,"COc1nc(NC(C)Cc2ccc(Cl)cc2)cc(-c2ccc(OC)c(OC)c2)n1 (stereo not drawn) [Example 43(a), [2-(4-Chloro-phenyl)-1-methyl-ethyl]-[6-(3,4-dimethoxy-phenyl)-2-methoxy-pyrimidin-4-yl]-amine]",1730 nM
17,"COc1ccc(C[C@H](Nc2cc(-c3cccc(OC)c3)nc(OC)n2)C(=O)O)cc1 [Example 43(n), (2S)-2-[2-Methoxy-6-(3-methoxy-phenyl)-pyrimidin-4-ylamino]-3-(4-methoxy-phenyl)-propionic acid]",548 nM
18,"COc1nc(NCCc2ccc(OC(F)F)cc2)cc(-c2cccc(S(C)(=O)=O)c2)n1 [example 46(d), [2-(4-Difluoromethoxy-phenyl)-ethyl]-[6-(3-methanesulfonyl-phenyl)-2-methoxy-pyrimidin-4-yl]-amine hydrochloride]",17 nM

# Next, values leading:
row,IC50,Structure (SMILES)
1,212 nM,"COc1nc(NCCc2ccc3c(c2)OC(F)(F)O3)cc(-c2cccnc2)n1 [Example 46(b), [2-(2,2-difluoro-benzo[1,3]dioxol-5-yl)-ethyl]-(2-methoxy-6-pyridin-3-yl-pyrimidin-4-yl)-amine]"
2,2 nM,"COc1nc(NCCc2ccc(Cl)cc2Cl)cc(-c2cccc(C(C)(C)C(=O)NS(=O)(=O)Cc3ccccc3)c2)n1 [Example 95(b), N-[2-(3-{6-[2-(2,4-Dichloro-phenyl)-ethylamino]-2-methoxy-pyrimidin-4-yl}-phenyl)-2-methyl-propionyl]-C-phenyl-methanesulfonamide]"
3,0.7 nM,"COc1nc(NCCc2ccc(OC(F)(F)F)cc2)cc(-c2cccc(C3(C(=O)NS(C)(=O)=O)CCOCC3)c2)n1 [Example 84(a), N-[4-(3-{2-Methoxy-6-[2-(4-trifluoromethoxy-phenyl)-ethylamino]-pyrimidin-4-yl}-phenyl)-tetrahydro-pyran-4-carbonyl]-methanesulfonamide]"
4,0.8 nM,"COc1nc(NCCc2ccc(Cl)cc2Cl)cc(N2CCCC(C(=O)O)C2)n1 (stereo not drawn) [Example 73, 1-{6-[2-(2,4-Dichloro-phenyl)-ethylamino]-2-methoxy-pyrimidin-4-yl}-piperidine-3-carboxylic acid]"
5,37 nM,"COc1nc(NCCc2ccc(C(F)(F)F)cc2F)cc(-c2cccc(CCNC(C)=O)c2)n1 [Example 65, N-[2-(3-{6-[2-(2-Fluoro-4-trifluoromethyl-phenyl)-ethylamino]-2-methoxy-pyrimidin-4-yl}-phenyl)-ethyl]-acetamide hydrochloride]"
6,3.1 nM,"COc1nc(NCCc2ccc(OC(F)(F)F)cc2)cc(-c2ccc3c(c2)CC(C(=O)O)O3)n1 (stereo not drawn) [Example 88, 5-{2-Methoxy-6-[2-(4-trifluoromethoxy-phenyl)-ethylamino]-pyrimidin-4-yl}-2,3-dihydro-benzofuran-2-carboxylic acid hydrochloride]"
7,1 nM,"COc1nc(NCCc2ccc(Cl)cc2Cl)cc(-c2cccc(C(C)C(=O)O)c2)n1 (stereo not drawn) [Example 49(a), 2-(3-{6-[2-(2,4-Dichloro-phenyl)-ethylamino]-2-methoxy-pyrimidin-4-yl}-phenyl)-propionic acid hydrochloride]"
8,0.4 nM,"COc1nc(NCCc2ccc(C(F)(F)F)cc2F)cc(-c2ccc3[nH]cc(CC(=O)O)c3c2)n1 [Example 52, (5-{6-[2-(2-Fluoro-4-trifluoromethyl-phenyl)-ethylamino]-2-methoxy-pyrimidin-4-yl}-1H-indol-3-yl)-acetic acid]"
9,110 nM,"COc1nc(NCCc2ccc(Cl)cc2Cl)cc(-c2ccc(Cl)c(C(C)(C)O)c2)n1 [Example 98, 2-(2-Chloro-5-{6-[2-(2,4-dichloro-phenyl)-ethylamino]-2-methoxy-pyrimidin-4-yl}-phenyl)-propan-2-ol]"

# Reference: US7517889B2, “2,6-substituted-4-monosubstitutedamino-pyrimidine as prostaglandin D2 receptor antagonists” (Aventis Pharmaceuticals, Inc., priority 2004, dated 2009)
